Measured values taken from publication PMC3709979 (PLoS ONE, 2013).
Values joined by “and” are separate entries in the source; they are usually repeats but may differ in a detail not shown here. Equal values may be shown once. “Also recorded” adds a separate entry of the source. Read-outs that look alike come from different tables or passages of the source.

Key:
ERα [1] = target: T1, ERα (Homo sapiens, UniProt P03372); assay: biochemical
T1 sequence (P03372 1-595): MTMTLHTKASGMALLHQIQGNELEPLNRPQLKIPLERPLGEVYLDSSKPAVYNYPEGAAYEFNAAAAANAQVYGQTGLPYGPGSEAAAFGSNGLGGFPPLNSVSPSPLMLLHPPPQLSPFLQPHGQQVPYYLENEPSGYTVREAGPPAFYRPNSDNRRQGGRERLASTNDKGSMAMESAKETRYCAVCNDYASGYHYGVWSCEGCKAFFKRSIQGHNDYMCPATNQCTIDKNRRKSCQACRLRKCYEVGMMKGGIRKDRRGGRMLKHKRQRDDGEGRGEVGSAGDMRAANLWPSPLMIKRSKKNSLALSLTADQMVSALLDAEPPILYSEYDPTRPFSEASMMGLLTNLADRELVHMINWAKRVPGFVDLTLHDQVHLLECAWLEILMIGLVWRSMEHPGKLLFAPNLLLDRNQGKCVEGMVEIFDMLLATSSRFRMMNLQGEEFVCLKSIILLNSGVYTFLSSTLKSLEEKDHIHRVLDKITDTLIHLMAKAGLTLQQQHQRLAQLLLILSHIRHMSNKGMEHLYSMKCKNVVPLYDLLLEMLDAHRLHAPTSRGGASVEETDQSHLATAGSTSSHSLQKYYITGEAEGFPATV
Procedure: (§1) To correct for non-specific binding, a control containing all the added components except for the hot mix was considered. The incubation was carried out at room temperature for 2 h before 100 µL of 50% hydroxyapatite slurry (HAPS) was added. The tubes were incubated on ice for 15 min with vortexing every 5 min. The appropriate ER wash buffer was added (1 mL), and the tubes were vortexed before centrifuging at 10000×g for 5 min. The supernatant was discarded, and this wash step was repeated three times. The HAPS pellet containing the ligand-receptor complex was re-suspended in 200 µL of ethanol and transferred to scintillation vials. An additional 200 µL of ethanol was used to rinse the centrifuge tube.

[2] = tested on: estrogen responsive element (ERE)-luciferase in MCF-7 cells; assay: ERE-luciferase induction in MCF-7 cells; assay type: cell-based; conditions: 24 h; for ERE-luciferase induction in MCF-7 cells (in words): isolated compounds tested at 0.1 µM and 1 µM
Procedure: The Dual-Luciferase Reporter Assay System protocol from Promega (Madison, WI) was used to evaluate the activation of ERs through interaction with ERE at the promoter of estrogen responsive genes, resulting in the expression of the fused luciferase reporter. Briefly, MCF-7 cells grown in phenol-red free medium for 48 h, were trypsinized and re-suspended in serum-free medium at 1×10^7 cells/mL followed by a 10 min incubation at room temperature with pERE (3 µg/mL) obtained from Dr. V. C. Jordan, Northwestern University, and pRL-TK (Promega) (1 µg/mL) in a 4 mm gap cuvette before electroporation at 950 µF and 250 V using the Gene Pulser Xcell (BioRad Laboratories, Hercules, CA). Transfected cells were diluted in serum containing medium and plated in 24-well plates (2×10^5 cells/well). After 24 h, the cells were washed with PBS and treated with two concentrations of the crude extracts (2 µg/mL and 10 µg/mL) and two concentrations of the isolated compounds (0.1 µM and 1 µM), for an additional 24 h. […] Cell lysates (20 µL) were placed in white Costar 96-well plates, before the injection of Luciferase Assay reagent (100 µL) followed by a 12 s read by a FLUOstar OPTIMA (BMG Lab Tech, Offenburg, Germany). To quench the firefly luciferase expression and activation of the renilla expression, Stop & Glo reagent (100 µL) was injected followed by a 12 s read. In order to exclude the errors in transfection efficiency, average read out of the luciferase activity was normalized to the average associated pRL-TK read outs (renilla activity). The results were converted into fold induction by normalizing to DMSO.

ERα [3] = target: T1, ERα; assay: Pulsed ultrafiltration LC-MS screening for ERα ligands; assay type: binding; design: purchased Invitrogen (Grand Island, NY); conditions: crude MeOH extract 150 µg/ml, 1 h room temperature, denatured ER control
Procedure: A screening assay based on ultrafiltration mass spectrometry was used to identify the ligands of ER present in licorice crude extracts. Briefly, 150 µg/ml of the methanol crude extract was incubated for 1 h at room temperature with 50 pmol of ERα or ERβ in binding buffer consisting of 50 mM Tris-HCl (pH 7.5), 10% glycerol, 50 mM KCl, and 1 mM ethylenediaminetetraacetic acid (EDTA) in a total volume of 50 µL. Identical control incubations in which denatured ER was substituted for active ER was used to correct for nonspecific binding of compounds to the ultrafiltration membrane and holder. After incubation, each mixture was filtered through a Microcon (Millipore, Bedford, MA) YM-30 centrifugal filter containing a regenerated cellulose ultrafiltration membrane with a 30000 MW cutoff and washed three times with 200 µL aliquots of ammonium acetate buffer (pH 7.5) at 4°C to remove the unbound compounds. The bound ligands were released by adding 400 µL of methanol/water (90∶10; v/v) followed by centrifugation at 10000×g for 10 min. […] Aliquots (10 µL) were analyzed using LC-MS, which consisted of a reverse phase separation on a Shimadzu (Kyoto, Japan) Shim-Pack XR-ODS III C18 (1.6 µm, 2.0 mm ×50 mm) column and mass spectrometric analysis on a Shimadzu LCMS- IT-TOF mass spectrometer. […]

ERα [4] = target: T1, ERα
Procedure: as §1

Tff1 mRNA in T47D cells = assay: Tff1 mRNA induction in T47D cells (qRT-PCR); assay type: cell-based; conditions: 8-PN 100 nM, LigF 5 µM, LigC 5 µM, 6 h, relative to DMSO
Procedure: Quantitative real-time polymerase chain reaction (qRT-PCR) was used to examine the modulation of the Tff1 induction following treatment of T47D cells with the extracts and the related compounds. Experiments were performed four independent times in triplicates. T47D cells (4×10^4 cells/mL) were preincubated in estrogen-free media for 72 h. […] Total RNA was isolated using the TRIzol Plus RNA purification kit (Invitrogen) and quantitated by UV analysis at 260 nm. cDNA synthesis was performed using qScript cDNA synthesis kit (Quanta Biosceiences) in a total volume of […], containing 4 µL qScript reaction mixture (5X), 1 µL qScript RT, 10 µL nuclease-free water, and 5 µL of RNA sample. The reaction was carried out for 5 min at 22°C, followed by 42°C for 30 min and a 5 min incubation step at 85°C. The PCR and subsequent analyses were performed using the ABI StepOne Plus RT-PCR system (Applied Biosystems). Quantitation was performed using the TaqMan technology of Applied Biosystems. Tff1 was evaluated using a predeveloped gene expression primer/probe set (Applied Biosystems' Assay on Demand). Briefly, the PCR reaction mixture was prepared in a total volume of 20 µL, containing 1 µL 20X TagMan Gene Expression Assay, 10 µL 2X TaqMan Gene Expression Master Mix, 4 µL cDNA template, and 5 µL RNase-free water. The reaction mixture was incubated at 50°C for 2 min followed by 10 min at 95°C. Polymerase chain reactions were performed in triplicate and consisted of 40 cycles with 15 s denaturing step at 95°C and 1 min annealing/extending step at 60°C each. The fluorescence signal was measured during the last 30 s of the annealing/extension phase. Following analysis, a fluorescence threshold value was set and threshold cycle (Ct) values were determined. […] The final results were expressed as a fold induction, where the levels of Tff1 observed in the DMSO-treated samples was defined as one.

[5] = tested on: estrogen-responsive alkaline phosphatase in Ishikawa cells; assay: Induction of estrogen-responsive alkaline phosphatase (AP) in Ishikawa cells; conditions: 96 h; for EC50: Homo sapiens, Ishikawa
Procedure: Ishikawa cells (5×10^4 cells/well) were pre-incubated in 96 well plates in estrogen-free medium for 24 h. Test samples dissolved in DMSO, were added at different concentrations and the DMSO concentration was kept lower than 0.1%. […] Plates were incubated at 37°C for 96 h. […] The maximum slope of the kinetic curve for every experiment well was calculated.

Ishikawa cells = assay: Cytotoxicity in cell culture assays; assay type: cell-based; conditions: AP assay, reduction in the estrogenic response
Description: The Ishikawa cell line was provided by Dr. R. B. Hochberg (Yale University, New Haven, CT) and was maintained in Dulbecco's Modified Eagle Medium (DMEM/F12) containing 1% sodium pyruvate, 1% nonessential amino acids (NEAA), 1% glutamax-1, 0.05% insulin, and 10% heat-inactivated FBS [32], [33], [34]. […] Two days before treating the cells, the medium was replaced with phenol red-free DMEM/F12 medium containing charcoal/dextran-stripped FBS and supplements. […] However, alkaline phosphatase was not inducible in ECC1 cells obtained from ATCC. Despite this controversy, we will keep the conventional name, Ishikawa, for this cell line throughout this paper. The MCF-7 cell line was purchased from ATCC. […] Two days prior to treating the cells, the medium was replaced with phenol red-free RPMI 1640 medium containing charcoal/dextran-stripped FBS with acetone-washed activated charcoal (100mg/mL) at 4°C for 30 min and centrifuged at 4000 rpm for 15 min at 4°C. This step was repeated in triplicate. Extracts and compounds were not toxic to cells at the applied concentrations, under these experimental conditions. DMSO concentrations for all cell culture assays were below 0.1%.

human recombinant ERβ [6] = target: T2, human recombinant ERβ (Homo sapiens, UniProt Q92731); assay: biochemical
T2 sequence (Q92731 whole entry): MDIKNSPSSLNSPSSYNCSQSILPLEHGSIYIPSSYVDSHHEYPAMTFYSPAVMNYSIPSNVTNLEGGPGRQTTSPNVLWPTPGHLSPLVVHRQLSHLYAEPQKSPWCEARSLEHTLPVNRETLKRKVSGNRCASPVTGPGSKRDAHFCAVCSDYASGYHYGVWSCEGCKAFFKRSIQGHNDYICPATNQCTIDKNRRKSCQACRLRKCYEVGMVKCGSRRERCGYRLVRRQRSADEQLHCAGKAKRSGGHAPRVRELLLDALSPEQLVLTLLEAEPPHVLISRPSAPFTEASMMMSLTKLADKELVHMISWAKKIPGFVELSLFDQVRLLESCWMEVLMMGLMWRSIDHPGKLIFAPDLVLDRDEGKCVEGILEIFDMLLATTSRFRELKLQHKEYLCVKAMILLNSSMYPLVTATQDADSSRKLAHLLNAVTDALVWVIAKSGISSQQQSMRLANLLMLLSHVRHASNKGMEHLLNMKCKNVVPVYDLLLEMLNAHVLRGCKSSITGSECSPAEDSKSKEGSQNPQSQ
Procedure: as §1

[7] = Isomerization of isoliquiritigenin to liquiritigenin under bioassay conditions (LC-MS/LC-UV); assay type: physicochemical
Procedure: To evaluate this conversion and better define the compounds responsible for the observed estrogenic activity, LC-MS monitoring of the isomerization of these active principles in the cell-based assays was performed in parallel to every bioassay. One set of plates was considered for time 0, when there was no treatment and another set was considered for the final harvesting day for every experimental condition. The media exposed to cells were collected and extracted by adding sodium acetate buffer (100 mM, pH 5), followed by liquid-liquid extraction by water-saturated ethyl acetate.

human recombinant ERβ [8] = target: T2, human recombinant ERβ; design: purchased Invitrogen (Grand Island, NY); method as in J. Agric. Food Chem. 2005, 53, 6246–6253; conditions: read-out: IC50 ERβ; isolated compounds; ref J. Agric. Food Chem. 2005, 53, 6246–6253; cited from earlier work
[9] = read-out: AP induction Ishikawa cells EC50

Structure (SMILES): O=C1C[C@@H](c2ccc(O)cc2)Oc2cc(O)ccc21 [LigF, liquiritigenin]
- IC50 (ERα [1]): > 200000 nM
- fold induction at 0.1 µM ([2]; Homo sapiens, MCF7, isolated compounds at 100 nM, DMSO set to 1): 2.1 ± 0.4
- ERE-luciferase induction in MCF-7 cells (in words) [2]: showed induction of ERE-luciferase
- binding to ERα in PUF-MS screening (ERα [3]): bound to ERα and ERβ
- IC50 ERα (ERα [4]): very weak affinity for ERα
- Tff1 mRNA induction in T47D cells (Tff1 mRNA in T47D cells): lower than that of 8-PN (0.1 µM), but the difference was not significant
- EC50 [5, 9]: 3400 ± 400 nM
- Maximum AP fold induction Ishikawa cells ([5]; maximum efficacy): 83 fold and 83.1±3.4 fold

Structure (SMILES): C[C@]12CC[C@@H]3c4ccc(O)cc4CC[C@H]3[C@@H]1CC[C@@H]2O [17β-estradiol, reference compound]
- EC50 [5, 9]: 0.19 ± 0.05 nM

Structure (SMILES): COc1cc(O)c(CC=C(C)C)c(O)c1C(=O)/C=C/c1ccc(O)cc1 [XH, xanthohumol]
- ERE-luciferase induction in MCF-7 cells (in words) [2]: did not show any induction of ERE-luciferase
- Tff1 mRNA induction in T47D cells (Tff1 mRNA in T47D cells): no Tff1 activity
- AP induction Ishikawa cells EC50 ([5]; isolated compounds, n = 9): inactive

Structure (SMILES): O=C(/C=C/c1ccc(O)cc1)c1ccc(O)cc1O [LigC, isoliquiritigenin]
- IC50 (ERα [1]): 16000 ± 1000 nM
- concentrations with cytotoxic effects (Ishikawa cells): above 7.5 µM
- IC50 (human recombinant ERβ [6]): 7800 ± 100 nM
- isomerization of LigC to LigF ([7]; ER binding buffer, 2 h at room temperature, LC-UV): did not show any isomerization of LigC to LigF; also recorded: did not show a conversion of LigC to LigF
- isomerization of LigC to LigF ([7]; cell media of AP assay, 96 h with Ishikawa cells at 37°C, LC-MS): significant reduction in the LigC content and a corresponding increase in LigF formation; also recorded: mostly converted to LigF
- isomerization of LigC to LigF ([7]; cell media of mRNA induction assay, 6 h with T47D cells at 37°C, LC-MS): did not show a significant formation of LigF from LigC; also recorded: the conversion was limited
- Tff1 mRNA induction in T47D cells (Tff1 mRNA in T47D cells): induced Tff1, significantly
- EC50 [5, 9]: 2700 ± 200 nM

Structure (SMILES): CC(C)=CCc1c(O)cc(O)c2c1O[C@H](c1ccc(O)cc1)CC2=O [8-PN, 8-prenylnaringenin]
- ERE-luciferase induction in MCF-7 cells (in words) [2]: showed induction of ERE-luciferase
- IC50 (human recombinant ERβ [8]): 1700 ± 100 nM
- EC50 ([5]; read-out: AP induction Ishikawa cells EC50, as given in text, 96 h): 6.6 nM
- EC50 ([5]; read-out: AP induction Ishikawa cells EC50, isolated compounds, 96 h, n = 9): 6.65 ± 1.4 nM
